Assay results as given in patent US5760036A, “Aminediol protease inhibitors” (E. R. Squibb & Sons, Inc., priority 1995, dated 1998).

Target: T1, HIV protease (Human immunodeficiency virus type 1 group M subtype B, UniProt P04585)
T1 construct: and purified protease
Test: HIV Protease Assay
Format: biochemical
Settings: 4% DMSO, 450 μM substrate, pH 5.5, 30 minutes at 37° C., RP-HPLC; for inhibition at 10 µM: pH 5.5, 10 μM inhibitor, read-out: HIV Protease % Inhibition at 10 μM; for HIV Protease % Inhibition at 10 μM: 10 μM inhibitor
Method: An HIV protease standard assay was performed in a 60 μl reaction medium containing 50 mM sodium acetate, pH 5.5, 100 μg/ml bovine serum albumen,450 μM substrate (H2 N-Val-Ser-Gln-Asn-(β-naphthyl-alanine)-Pro-Val-Ile-OH), and purified protease. The reaction medium was incubated for 30 minutes at 37° C., quenched by the addition of 140 μl 5% H3 PO4, then analyzed by reverse phase HPLC using UV220 detection. In a typical control assay, 7% of the substrate was hydrolyzed. Aminediol inhibitors of the present invention, listed in the following Table 1, were then employed in the assay, for which purpose they were prepared as a […] solution in DMSO, then diluted to 30 μM with 50 mM sodium acetate/bovine serum albumen. This working stock was then diluted three-fold into the protease reaction medium, for a final concentration of 10 μM inhibitor and 4% DMSO.

SMILES | inhibition at 10 µM | HIV Protease % Inhibition at 10 μM
CN(C(=O)NC(C)(C)C)[C@@H](Cc1ccccc1)[C@H](O)CNC[C@@H](O)[C@H](Cc1ccccc1)NC(=O)OC(C)(C)C [Compound 136, [1S-[1R*,2S*(2S*,3R*)]]-[3-[[3-[[[(1,1-Dimethylethyl)amino]carbonyl]methylamino]-2-hydroxy-4-phenylbutyl]amino]-2-hydroxy-1-(phenylmethyl))propyl]carbamic acid, 1,1-dimethylethyl ester] | 73% | 
CC(C)[C@H](N)C(=O)N[C@@H](Cc1ccccc1)[C@H](O)CNC[C@@H](O)[C@H](Cc1ccccc1)NC(=O)OC(C)(C)C [Compound 59, [S-[1R*,2S*(2S*,3R*)-N-[3 [[3-[[(1,1-Dimethylethoxy)carbonyl]amino]-2-hydroxy-4-phenylbutyl]amino]-2-hydroxy-1-(phenylmethyl)-propyl-L-valinamide] | 45% | 
CC(C)[C@H](NC(=O)OCc1ccccc1)C(=O)N[C@@H](Cc1ccccc1)[C@@H](O)CNC[C@@H](O)[C@H](Cc1ccccc1)NC(=O)OC(C)(C)C [Compound 115, [S-[1R*,2R*(2S*.3R*)]-N-[3-[[3-[[(1,1-Dimethylethoxy)carbonyl]amino]-2-hydroxy-4-phenylbutyl]amino]-2-hydroxy-1-phenylmethyl)propyl]-N^2-[(phenylmethoxy)-carbonyl]-L-valinamide] | 58% | 
O=C(Cc1ccccc1)N[C@@H](Cc1ccccc1)[C@H](O)CNC[C@@H](O)[C@H](Cc1ccccc1)NC(=O)Cc1ccccc1 [Compound 83, [R-(R*,S*)]-N,N'-[Iminobis[2-hydroxy-1-(phenylmethyl)-3,1-propanediyl[bisbenzeneacetamide] | 19% | 
CC(C)[C@H](N)C(=O)N[C@@H](Cc1ccccc1)[C@H](O)CNC[C@@H](O)[C@H](Cc1ccccc1)NC(=O)[C@@H](N)C(C)C [Compound 43, [S-(1S*,2R*)]-N,N'-[Iminobis[2-hydroxy-1-(phenylmethyl)-3,1-propanediyl]]bis-L-valinamide] | 21% | 
CC(C)(C)OC(=O)N[C@@H](Cc1ccccc1)[C@H](O)CNC[C@@H](O)[C@H](Cc1ccccc1)NC(=O)C1(O)CCc2ccccc21 (single isomer, unassigned; isomer b) [Compound 376, [1S-[1R*,2S*(2S*, 3R*)]]-[3-[[3-[[(2,3-Dihydro-1-hydroxy-1H-inden-1-yl)carbonyl]amino]-2-hydroxy-4-phenylbutyl]amino]-2-hydroxy-1-(phenylmethyl)propyl]carbamic acid, 1.1-dimethylethyl ester, isomer B] |  | 63%
CC(C)(C)OC(=O)N[C@@H](Cc1ccccc1)[C@H](O)CNC[C@@H](O)[C@H](Cc1ccccc1)NC(=O)[C@H](CCCCN)NC(=O)OCc1ccccc1 [Compound 89, [S-[1R*,2S*(2S*,3R*)[[-N-[3-[[3-[[(1,1-Dimethylethoxy)carbonyl]amino]-2-hydroxy-4-phenylbutyl]amino]-2-hydroxy-1-(phenylmethyl)-propyl]-N2-[(phenylmethoxy)carbonyl]-L-lysinamide] | 23% | 
CC(C)(C)OC(=O)N[C@@H](Cc1ccccc1)[C@H](O)CNC[C@@H](O)[C@H](Cc1ccccc1)NC(=O)NCc1ccccc1 (relative stereo) [Compound 57, [1R*,2S*(2S*,3R*)]-[2-Hydroxy-3[[2-hydroxy-4-phenyl-3-[[[(phenylmethyl)amino]-carbonyl]amino]butyl]amino]-1-(phenylmethyl)-propyl]carbamic acid, 1,1-dimethylethyl ester] | 46% | 

More lines, now with the values ahead:

inhibition at 10 µM | HIV Protease % Inhibition at 10 μM | SMILES
35% |  | CC(C)(C)OC(=O)N[C@@H](Cc1ccccc1)[C@H](O)CNC[C@@H](O)[C@H](Cc1ccccc1)NS(=O)(=O)C(C)(C)C [Compound 183, [1S-[1R*,2S*(2S*,3R*)]]-[3-[[3-[[(2,2-Dimethylethyl)sulfonyl]amino]-2-hydroxy-4-phenylbutyl]amino]-2-hydroxy-1-(phenylmethyl)proyl]carbamic acid, 1,1-dimethylethyl ester]
95% |  | CC(C)(C)OC(=O)N[C@@H](Cc1ccccc1)[C@H](O)CNC[C@@H](O)[C@H](Cc1ccccc1)NC(=O)[C@H](O)c1ccccc1 [Compound 377, [1S-[1R*,2S*[2S*, 3R*(S*)]]]-[3-[[3-[2-Hydroxy-1-oxo-2-phenylethyl)amino]-2-hydroxy-4-phenylbutyl]amino]-2-hydroxy-1-(phenylmethyl)propyl]carbamic acid, 1-dimethylethyl ester]
37% |  | CON=C(C(=O)N[C@@H](Cc1ccccc1)[C@H](O)CNC[C@@H](O)[C@H](Cc1ccccc1)NC(=O)OC(C)(C)C)C(C)(C)C [Compound 296, [1S-[1R*,2S*(2S*,3R*)]]-[2-Hydroxy-3-[[2-hydroxy-3-[[2-(methoxyimino)-3,3-dimethyl-1-oxobutyl]amino]-4-phenylbutyl]amino]-1-(phenylmethyl)propyl]carbamic acid, 1,1-dimethylethyl ester]
86% |  | CC(C)(C)OC(=O)N[C@@H](Cc1ccccc1)[C@H](O)CNC[C@@H](O)[C@H](Cc1ccccc1)NC(=O)CC(O)CO (stereo partly drawn) [Compound 255, [1S-[1R*,2S*(2S*,3R*)]]-[3-[[3-[(3,4-Dihydroxy-1-oxo-butyl)amino]-2-hydroxy-4-phenylbutyl]amino]-2-hydroxy-1-(phenylmethyl)propyl]carbamic acid, 1,1-dimethylethyl ester]
28% |  | CC(C)(C)OC(=O)NC[C@H](O)[C@@H](Cc1ccccc1)NC[C@@H](O)[C@H](Cc1ccccc1)NC(=O)OC(C)(C)C [Compound 187, [2S-[2R*,3S*(2S*,3R*)]]-[3-[[3-[[(1,1-Dimethylethoxy)carbonyl]amino]-2-hydroxy-4-phenylbutyl]amino]-2-hydroxy-4-phenylbutyl]carbamic acid, 1,1-dimethylethyl ester]
 | 89% | CC(C)(C)OC(=O)N[C@@H](Cc1ccccc1)[C@H](O)CNC[C@@H](O)[C@H](Cc1ccccc1)NC(=O)C(C)(O)c1ccccn1 (single isomer, unassigned; isomer b) [Compound 382, [1S-[1R*,2S*(2S*, 3R*)]]-[2-Hydroxy-3-[[2-hydroxy-3-[[2-hydroxy-1-oxo-2-(2-pyridinyl)propyl]amino]-4-phenylbutyl]amino]-1-(phenylmethyl)propyl]carbamic acid, 1.1-dimethylethyl ester, isomer B]
83% |  | CC(C)(C)OC(=O)N[C@@H](Cc1ccccc1)[C@H](O)CNC[C@@H](O)[C@H](Cc1ccccc1)NC(=O)OC[C@H](O)CO [Compound 231, [1S-(1R*,2S*),(S*)]-[Iminobis[2-hydroxy-1-(phenylmethyl)-3,1-propanediyl]]biscarbamic acid, 2,3-dihydroxypropyl 1,1-dimethylethyl ester]
 | 99% | CNC(=O)C(O)(C(=O)N[C@@H](Cc1ccccc1)[C@H](O)CNC[C@@H](O)[C@H](Cc1ccccc1)NC(=O)OC(C)(C)C)C(C)(C)C (single isomer, unassigned; isomer b) [Compound 385, [1S-[1R*,2S*(2S*, 3R*)]]-[3-[[3-[[2-Hydroxy-3,3-dimethyl-2-[(methylamino)carbonyl]-1-oxobutyl]amino]-2-hydroxy-4-phenylbutyl]amino]-2-hydroxy-1-(phenylmethyl)propyl]carbamic acid, 1,1-dimethylethyl ester, isomer B]
98% |  | CC(C)(C)OC(=O)N[C@@H](Cc1ccccc1)[C@H](O)CNC[C@@H](O)[C@H](Cc1ccccc1)NC(=O)OC(C)(CO)CO [Compound 251, [R-(R*,S*)]-[Iminobis[2-hydroxy-1-(phenylmethyl)-3,1-propanediyl)]biscarbamic acid, 1,1-bis(hydroxymethyl)ethyl 1,1-dimethylethyl ester]
85% |  | CC(C)(C)OC(=O)N[C@@H](Cc1ccccc1)[C@H](O)CNCC(C)(O)[C@H](Cc1ccccc1)NC(=O)OC(C)(C)C (stereo partly drawn) [Compound 192, [1S-[1R*,2S*(3R*)]]-[3-[[3-[[(1,1-Dimethylethoxy)carbonyl]amino]-2-hydroxy-2-methyl-4-phenylbutyl]amino]-2-hydroxy-1-(phenylmethyl)propyl]amino]carbamic acid, 1,1-dimethylethyl ester]
27% |  | CC(C)(C)OC(=O)N[C@@H](Cc1ccccc1)[C@H](O)CNC[C@@H](O)[C@H](Cc1ccccc1)NC(=O)C1c2ccccc2CN1C=O (stereo partly drawn) [Compound 270, [1S-[1R*,2S*(2S*,3R*)]]-[3-[[3-[[(2-Formyl-2,3-dihydro-1H-isoindol-1-yl)carbonyl]amino]-2-hydroxy-4-phenylbutyl]amino]-2-hydroxy-1-(phenylmethyl)-propyl]carbamic acid 1,1-dimethylethyl ester]
99% |  | CC(C)(C)OC(=O)N[C@@H](Cc1ccccc1)[C@H](O)CNC[C@@H](O)[C@H](Cc1ccccc1OCc1ccccc1)NC(=O)OC(C)(C)C [Compound 348, [1S-[1R*,2S*(2S*,3R*)]]-[3-[[(3-[[(1,1-Dimethylethoxy)carbonyl]amino]-2-hydroxy-4-[2-(phenylmethoxy)phenyl]butyl]amino]-2-hydroxy-1-(phenylmethyl)propyl]carbamic acid, 1,1-dimethylethyl ester]
